Data on 1 molecule can be found in patent US20080118980A1, “Estrogen Enhancing Differentiation of Human Mesenchymal Stromal Cells and Adipose-derived Stromal Cells” (The Board of Trustees of the University of Illinois,, priority 2006, published 2008).

Experiment [1] relates to human ASCs. As to the kind of experiment: Osteogenic differentiation of human ASCs modulated by E2 (Example 1). The class given is cell-based. From the text: Human bone marrow MSCs were provided by the Center for Gene Therapy of Tulane University. The MSCs were isolated from bone marrow cells donated by a healthy adult volunteer. The passage-1 cells were recovered and expanded by culture in a basic medium composed of DMEM, 10% FBS and 1% antibiotic-antimycotic. Human ASCs were isolated from a healthy person with a lipo-aspirated surgery. The abdomen subcutaneous adipose tissue was finely minced and then digested with 0.075 wt % collagenase type I at 37° C. for 45 min. The cells were then collected by filtration with a cell strainer with pore size of 100 μm diameter. The ASCs were expanded in basic DMEM medium. Upon reaching 80-90% confluence of human MSCs and ASCs, the cells were trypsinized, counted, and subcultured at a density of 10^5 cells/100 mm dish. The cells used for study were passage-2. For osteogenic differentiation, the cells were seeded at a cell density of 10^4 cells/cm2 on 12-well plates and 100-mm petri dishes. Upon reaching 70% confluence, counting as day-0, the cells were exposed to osteogenic differentiation medium supplemented with either 10 nM or 10 pM E2. The osteogenic differentiation medium consisted of basic medium supplemented with 100 nM dexamethasone, 10 mM β-glycerophosphate, and 0.05 mM ascorbic acid-2-phosphate. At the defined time, the cells were collected and analyzed for osteogenic gene expression and differentiation potentials.
The cultured cells in 12-well plates were washed twice with PBS, suspended and lysed in 1% Triton-X100 solution. The collected cells were subsequently homogenized using sonication. The DNA content was determined by a fluorometric assay (Bio-Rad). ALP and calcium content were measured by spectrophotometry with a calorimetric kit according to the manufacturers' instructions (Sigma).
RNA was extracted from differentiated cells using TRizol reagent (Invitrogen). 5 μg of total RNA was converted to single stranded cDNA using a commercial cDNA synthesis kit. Aliquots of the cDNA were amplified with Ampli-Taq DNA polymerase for ALP, osteocalcin (OCN), core binding factor alpha1 (cbfa1), peroxisome proliferator activated receptors gamma (PPARγ)-2, estrogen receptors (ER) alpha (α) and beta (β), and housekeeping gene GAPDH. 40 cycles were used, each consisting of 45 sec of denaturation at 95° C., 45 sec of annealing at 58° C., and 1 min of polymerization at 72° C.

Experiment [2] relates to human ASCs. As to the kind of experiment: Osteogenic differentiation of ASCs modulated by E2 (Example 2). The class given is cell-based. As to the method:
Because estrogen receptors (ERs) exist in adipose tissues (Dieudonne et al. (2004) Am J Physiol Cell Physiol. 286:C655-661), it is hypothesized that estrogen can also modulate the differentiation potentials of ASCs. All the experiments using human ASCs were performed under an approved IRB protocol of the University of Illinois at Chicago. Human abdomen subcutaneous adipose tissue was obtained from a healthy person with lipo-aspirated surgery. ASCs were isolated from adipose tissue according to previous studies (Hong et al. (2006) Cells Tissues Organs. 183 (3):133-40). Briefly, adipose tissue was finely minced and then digested with 0.075 wt % collagenase type I (Sigma, St Louis, Mo.) at 37° C. for 45 min with intermittent shaking. The cells were collected by filtration with a cell strainer with pore size of 100 μm diameter (Fisher Scientific, Barrington, Ill.). The harvested cells were cultured in a Dulbecco's Modified Eagle's Medium (DMEM), 15% fetal bovine serum (FBS) and 1% antibiotic-antimycotic at 10^6 cells/100 mm dish. Upon reaching 80-90% confluence, the isolated cells were trypsinized, counted, and subcultured at a density of 10^5 cells/100 mm dish as passage-1. The cells used for study are passage-3.
The basic medium supplemented with 100 nM dexamethasone, 10 mM β-glycerophosphate, and 0.05 mM ascorbic acid-2-phosphate was used to differentiate ASCs into an osteogenic cell lineage. Human ASCs were seeded at a cell density of 10^4 cells/cm^2 on 12-well plates and 100 mm petri dishes. Upon reaching 70% confluence, counting as day-0, the cells were exposed to osteogenic differentiation medium supplemented with different concentrations of E2 (from 10^−8 to 10^−11 M). On day 7, the cells cultured on petri dishes were collected for assessment of gene expressions of osteogenic specific markers and estrogen receptors (ERs) by reverse transcriptase polymerase chain reaction (RT-PCR) analysis. On day 14, the cells cultured in 12-well plates were analyzed for DNA, extracellular matrix, alkaline phosphatase (ALP) activity and calcium content.
On the defined day, cells cultured in 12-well plates were washed twice with phosphate buffered solution (PBS), suspended and lysed in 1% Triton-X100 solution (Sigma, St. Louis, Mo.). The collected cells were subsequently homogenized using sonication (Dismembrator Model 100, Fisher Scientific, Barrington, Ill.). The DNA content in the cells was determined by a fluorometric assay using a spectrofluorometer and DNA quantification kit (Hoechst 33258, Bio-Rad, Hercules, Calif.). The total protein concentrations of lysates were measured by a simple colorimetric assay based on the Bradford dye-binding procedure (Bio-Rad, Hercules, Calif.). The amount of protein was normalized by the unit of DNA.
ALP activity was assessed qualitatively by ALP staining. The cultured cells were fixed in 10% paraformaldehyde and incubated with 120 mM Tris buffer, pH 8.4, containing 0.9 mM Naphtol AS-MX Phosphate (Sigma, St. Louis, Mo.) and 1.8 mM Fast Red TR. After 45 min at room temperature, the cultures were washed with deionized water. Mineral deposition in the extracellular matrix was presented by von Kossa staining. The fixed cells were incubated in 2.5% (w/v) silver nitrate (Sigma, St. Louis, Mo.) solution for 30 min in sunlight. In order to quantify ALP activity and calcium content, cultured cells were washed twice with PBS, suspended and lysed in 0.5 ml of 1% Triton-X100 solution. ALP and calcium content were measured by spectrophotometry with a colorimetric kit according to the manufacturer's instructions (Raichem, San Diego, Calif.).
Total RNA was extracted from the various differentiated cells using TRizol reagent (Invitrogen, Carlsbad, Calif.). Approximately 5 μg of total RNA was converted to single stranded cDNA using a commercial cDNA synthesis kit (Invitrogen, Carlsbad, Calif.). […]

As to `C[C@]12CC[C@@H]3c4ccc(O)cc4CC[C@H]3[C@@H]1CC[C@@H]2O` [E2, 17-β estradiol], the calcium content entry with human ASCs [1] (FIG. 2F) is “significantly increased”. The ALP activities entry is listed as “significantly improved” in the experiment with human ASCs [1] (after 14 days, FIG. 2E); “significantly improved” in the experiment on human ASCs [2] (E2 10^−9 and 10^−8 M, after 14 days, FIG. 5B). Besides, the “OCN expression (RT-PCR)” value with human ASCs [1] (day 7, E2 10 nM) is “only densely expressed”; in the experiment with human ASCs [2] (7 days, estrogen supplement 10^−8 M), “only expressed”. In addition, in the experiment with human ASCs [1] (day 7, vs differentiation without estrogen supplement), the “cbfa-1 expression (RT-PCR band)” value is on record as “denser band”. Also, in the experiment on human ASCs [1] (higher dose of E2, FIG. 2D), the “cell proliferation (amount of DNA) during osteogenesis” value was “inhibits”. Further, the “ALP and von Kossa staining” value in the experiment with human ASCs [1] (osteogenic differentiation medium supplemented with E2 (10 nM or 10 pM)) was “denser color”. For the same molecule, in the experiment on human ASCs [2] (7 days, estrogen supplement 10^−11 M), the “ERβ expression (RT-PCR)” value is “light bands”. Besides, in the experiment with human ASCs [2] (7 days, vs cells grown in the absence of estrogen, FIG. 4), the “ALP and cbfa-1 expression (RT-PCR bands)” value is “intense bands”. The “staining for ALP and von Kossa” value in the experiment on human ASCs [2] (ASCs, osteogenic medium supplemented with E2) is given as “Intense staining”. Also, the “proliferation during osteogenesis (DNA content)” value in the experiment on human ASCs [2] (day 14, FIG. 5A) was “does not increase proliferation”. Further, the “calcium content (mineralization of the extracellular matrix)” value in the experiment on human ASCs [2] (day 14, most notably at 10^−8 M, FIG. 5D) is listed as “significantly increased”. Further, the “protein content (extracellular matrix synthesis)” value with human ASCs [2] (day 14, normalized by DNA, FIG. 5C) is “increased”.
